Where two headings read alike, the source gives them in different places.
Experiments:
MRSA = assay: Enhancing activity against various antimicrobial agents by broth microdilution method (MIC); assay type: cell-based, Staphylococcus aureus; conditions: for Ratio (−/+stemphone C) of MIC: MIC alone / MIC with stemphone C 16 μg/ml, fold enhancement; for MIC: Staphylococcus aureus, MRSA, read-out: MIC, antibacterial agent alone (−); for MIC, +stemphone C: in combination with stemphone C 16 μg/ml
[1] = test system: Stapylococcus aureus KB210 (ATCC6538p); assay: Antimicrobial action, paper disc method; assay type: cell-based; conditions: 5 μg/disc, disc diameter 6 mm, 37° C., 24 hours
[2] = test system: Acholeplasma laidlawii KB174; assay: Antimicrobial action, paper disc method; assay type: cell-based; conditions: 5 μg/disc, disc diameter 6 mm, 37° C., 24 hours
[3] = test system: methicillin resistant Staphylococcus aureus K24; assay: Enhancing effect for activity of imipenem by paper disk method; conditions: for diameter of inhibition zone in the presence of imipenem / diameter of inhibition zone, stemphone alone: 5 μg disc, 37° C., 20 hours; for diameter of inhibition zone in the presence of imipenem: MHA medium with imipenem 10 μg/ml; for diameter of inhibition zone, stemphone alone: MHA medium without imipenem
[4] = test system: Micrococcus luteus KB212 (ATCC9341); assay: Antimicrobial action, paper disc method; assay type: cell-based; conditions: 5 μg/disc, disc diameter 6 mm, 37° C., 24 hours
[5] = test system: Bacillus subtilis KB211 (PCI 219); assay: Antimicrobial action, paper disc method; assay type: cell-based; conditions: 5 μg/disc, disc diameter 6 mm, 37° C., 24 hours
[6] = without stemphone C, 37° C., 20 hours

Row | Structure (SMILES) | Ratio (−/+stemphone C) of MIC (MRSA) | MIC (MRSA; [6]) [µg/mL] | MIC, +stemphone C (MRSA; 37° C., 20 hours) [µg/mL] | other results
1 | CN(C)[C@@H]1C(O)=C(C(N)=O)C(=O)[C@@]2(O)C(O)=C3C(=O)c4c(O)cccc4[C@@](C)(O)[C@H]3C[C@@H]12 [tetracycline] | 1 | 32 | 32 | 
2 | C/C=C(\C)C(OC(C)=O)C(C)C1=CC(=O)C2=C(OC3(C)CCC4OC(C(C)(C)O)CCC4(C)C3C2)C1=O (centres unmarked) [Stemphone C] |  |  |  | zone of inhibition at 5 µg/disc [1]: 8 mm; zone of inhibition at 5 µg/disc [2]: 9 mm; diameter of inhibition zone in the presence of imipenem [3]: 20 mm; diameter of inhibition zone, stemphone alone [3]: not observed; enhancing activity for imipenem ([3]; paper disk method, in words): strong enhancing activity; effect of stemphone C itself on growth of test organism (MRSA; final concentration 16 μg/ml): did not affect growth; zone of inhibition at 5 µg/disc [4]: 14 mm; zone of inhibition at 5 µg/disc [5]: 9 mm
3 | CN[C@H](CC(C)C)C(=O)N[C@H]1C(=O)N[C@@H](CC(N)=O)C(=O)N[C@H]2C(=O)N[C@H]3C(=O)N[C@H](C(=O)N[C@H](C(=O)O)c4cc(O)cc(O)c4-c4cc3ccc4O)[C@H](O)c3ccc(c(Cl)c3)Oc3cc2cc(c3O[C@@H]2O[C@H](CO)[C@@H](O)[C@H](O)[C@H]2O[C@H]2C[C@](C)(N)[C@H](O)[C@H](C)O2)Oc2ccc(cc2Cl)[C@H]1O [vancomycin] | 1 |  | 0.5 | MIC (MRSA; 20 h): 0.5 µg/mL
4 | Cc1nnc(SCC2=C(C(=O)O)N3C(=O)[C@@H](NC(=O)Cn4cnnn4)[C@H]3SC2)s1 [cefazolin] | 16 | 64 | 4 | 
5 | C/C=C(\C)C(OC(C)=O)C(C)C1=CC(=O)C2=C(OC3(C)CCC4OC(C(C)(C)O)CC(O)C4(C)C3C2O)C1=O (centres unmarked) [Stemphone B] |  |  |  | zone of inhibition at 5 µg/disc [1]: 8 mm; zone of inhibition at 5 µg/disc [2]: 10 mm; diameter of inhibition zone in the presence of imipenem [3]: 15 mm; diameter of inhibition zone, stemphone alone [3]: not observed; zone of inhibition at 5 µg/disc [4]: 14 mm; zone of inhibition at 5 µg/disc [5]: 10 mm

Continued, in another order:

Row | Ratio (−/+stemphone C) of MIC (MRSA) | MIC (MRSA; [6]) [µg/mL] | MIC, +stemphone C (MRSA; 37° C., 20 hours) [µg/mL] | Structure (SMILES) | other results
6 | 512 | 16 | 0.03 | C[C@@H](O)[C@H]1C(=O)N2C(C(=O)O)=C(SCCN=CN)C[C@H]12 [imipenem] | 
7 | 512 | 512 | 1 | Cc1onc(-c2ccccc2Cl)c1C(=O)N[C@@H]1C(=O)N2[C@@H]1SC(C)(C)[C@@H]2C(=O)O [cloxacillin] | 
8 | 4 | 2 | 0.5 | [H]/N=C(/N)N[C@H]1[C@H](O)[C@@H](O)[C@H](O[C@@H]2O[C@@H](C)[C@](O)(C=O)[C@H]2O[C@@H]2O[C@@H](CO)[C@H](O)[C@@H](O)[C@@H]2NC)[C@@H](N/C(N)=N\[H])[C@@H]1O [streptomycin] | 
